Measurements published in patent US10126303B2, “Methods for identifying compounds as modulators of SLC38A9 interactions” (Whitehead Institute for Biomedical Research, priority 2014, dated 2018).
≈ marks a conversion by molar mass, not a printed value.

Assays:
[1] = test system: mTORC1; assay: Amino acid-induced activation of the mTORC1 pathway in SLC38A9-null HEK-293T cells (immunoblot); assay type: cell-based; settings: CRISPR/CAS9 knockout, starved 50 min, stimulated 10 min, range of concentrations
Method: FIGS. 5A-SE depict the results of experiments arginine and related immunoblots depicting impairment of induced activation of the mTORC1 pathway. FIG. 5A depicts the time dependent uptake of [^3H]-arginine by proteoliposomes containing SCL38A9.1. FIG. SB, left panel, depicts the time course of [^3H]arginine uptake, given fixed [^3H]arginine (0.5 μM) and increasing concentrations of unlabeled arginine. FIG. 5B, right panel, depicts velocity, calculated from left panel, as a function of total arginine concentration. Data were fitted to the Michaelis-Menton equation. FIG. 5C depicts the time-dependent efflux of SLC38A9.1 proteoliposomes following 1.5 hr loading with 0.5 μM [^3H]arginine. FIG. 5D depicts the competition of 0.5 μM [^3H]arginine transport by SLC38A9.1 using 100 mM of indicated unlabeled amino acids. The error bars in FIGS. 5A-5D represent standard deviation derived from at least 3 measurements. […]
HEK-293T cells (750,000/well) were plated into 6 well dishes and transfected 16 hours later with 1 μg of pX459 expressing above guides using XtremeGene9. […] Clones were expanded and evaluated for knockout status by western analysis for SLC38A9. These clones were evaluated for amino acid response as described above.

[2] = target: T1, SLC38A9.1 (Homo sapiens, UniProt Q8NBW4); assay: Competition of [3H]arginine transport by SLC38A9.1 proteoliposomes using unlabeled amino acids; assay type: biochemical; settings: 0.5 μM [3H]arginine; 100 mM unlabeled amino acid; 75 min
T1 construct: made in house; host or cells: HEK-293T cells stably expressing FLAG-SLC38A9.1
T1 sequence (Q8NBW4 1-561): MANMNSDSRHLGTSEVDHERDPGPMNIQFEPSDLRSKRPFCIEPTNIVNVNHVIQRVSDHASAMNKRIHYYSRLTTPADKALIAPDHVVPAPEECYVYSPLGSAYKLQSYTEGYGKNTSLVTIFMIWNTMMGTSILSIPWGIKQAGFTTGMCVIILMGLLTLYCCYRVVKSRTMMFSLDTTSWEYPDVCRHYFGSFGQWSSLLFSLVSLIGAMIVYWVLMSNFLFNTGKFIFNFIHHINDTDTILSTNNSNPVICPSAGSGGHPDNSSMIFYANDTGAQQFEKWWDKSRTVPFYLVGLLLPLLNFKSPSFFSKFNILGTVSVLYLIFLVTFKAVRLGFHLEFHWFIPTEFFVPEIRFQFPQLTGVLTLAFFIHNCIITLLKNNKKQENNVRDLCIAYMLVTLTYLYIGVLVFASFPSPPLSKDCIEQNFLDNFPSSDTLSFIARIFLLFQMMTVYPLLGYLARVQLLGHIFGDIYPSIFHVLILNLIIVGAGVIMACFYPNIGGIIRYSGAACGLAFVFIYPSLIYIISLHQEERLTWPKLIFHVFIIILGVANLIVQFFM
Method: (§1) SLC38A9.1 proteoliposomes or liposome controls were centrifuged at 100,000 g for 30 min. in a TLA-100.3 rotor and resuspended in a smaller volume of outside buffer such that they could be added to a larger volume of 100 mM unlabeled amino acid (final concentration) supplemented with outside buffer components. […] At such high concentrations, it is important to adjust all amino acid solutions to pH 7.4. Assays were initiated by addition of 0.5 μM [^3H]arginine to the amino acid buffer solution followed by the addition of SLC38A9.1 proteoliposomes or liposome controls.
For steady-state kinetics experiments, time points were collected as described above and to assess substrate specificity, competition experiments were collected at 75 min. For efflux experiments, SLC38A9.1 proteoliposomes or liposome controls were loaded with [^3H]arginine as described above for an import assay for 1.5 hrs. To remove external amino acids, the reactions were applied to PD10 columns pre-equilibrated with outside buffer, and time points were collected as described above. Scintillation counts from liposome controls were subtracted from that of SLC38A9.1 proteoliposomes.

[3] = Solubility limit of amino acid in the transport assay solution; assay type: physicochemical
Method: as §1

[4] = substrate: N=C(N)NCCC[C@H](N)C(=O)O; assay: Steady-state kinetics of [3H]arginine uptake by SLC38A9.1 proteoliposomes; assay type: biochemical, human; settings: other: [3H]arginine 0.5 μM plus increasing unlabeled arginine, 30° C.
Method: HEK-293T cells stably expressing FLAG-SLC38A9.1 were harvested as described above for immunoprecipitations, except cells were lysed in 40 mM HEPES pH 7.4, 0.5% Triton X-100, 1 mM DTT, and protease inhibitors. Following a 3 hr. immunoprecipitation, FLAG-affinity beads were washed twice for 5 min each in lysis buffer supplemented with 500 mM NaCl. Beads were equilibrated with inside buffer (20 mM MES pH 5, 90 mM KCl 10 mM NaCl) supplemented with 10% glycerol by washing them 5 times. FLAG-affinity purified SLC38A9.1 protein was eluted in glycerol-supplemented inside buffer containing 1 mg/mL FLAG peptide by rotation for 30 min. Protein was concentrated using Amicon centrifuge filters to about 1 mg/mL and snap-frozen in liquid nitrogen and stored at −80° C.
To form liposomes, chloroform-dissolved phosphatidylcholine (PC, 50 mg) was evaporated using dry nitrogen to yield a lipid film in a round bottom flask and desiccated overnight under vacuum. Lipids were hydrated in inside buffer at 50 mg/mL with light sonication in a water bath (Branson M2800H) and split into 100 μL aliquots in Eppendorf tubes. Aliquoted lipids were clarified using water bath sonication and recombined and extruded through a 100 nm membrane with 15 passes (Avanti 61000). […]

N=C(N)NCCC[C@H](N)C(=O)O [arginine]
activation of mTORC1 by the amino acid in SLC38A9 knockouts vs control cells [1]: strongly repressed at all arginine concentrations

NCC(=O)O [glycine]
competition of radiolabelled arginine transport [2]: least effective competitor

N[C@@H](Cc1c[nH]cn1)C(=O)O [histidine]
competition of radiolabelled arginine transport [2]: competed radiolabelled arginine transport to similar degrees as arginine

CC(C)C[C@H](N)C(=O)O [leucine]
solubility [3]: ~130 mM (≈ 17.1 mg/mL) | competition of radiolabelled arginine transport [2]: modest effect | activation of mTORC1 by the amino acid in SLC38A9 knockouts vs control cells [1]: only blunted

NCCCC[C@H](N)C(=O)O [lysine]
competition of radiolabelled arginine transport [2]: competed radiolabelled arginine transport to similar degrees as arginine

B1: SLC38A9.1 (Homo sapiens) (protein)
chain: T1 sequence (Q8NBW4 1-561)
notes: made in house; host or cells: HEK-293T cells stably expressing FLAG-SLC38A9.1
Km [4]: 39 mM | kcat [4]: 0.03 s⁻¹
